The values below come from ChEMBL document CHEMBL5620387, “Discovery of 4'-trifluoromethylchalcones as novel, potent and selective hCYP1B1 inhibitors without concomitant AhR activation” (Eur J Med Chem, 2023).

A value given as a limit tells only on which side of the number the result lay.

Series [1] concerns the target T1, Cytochrome P450 1A2 (Homo sapiens, UniProt P05177).
T1 sequence (P05177 whole entry): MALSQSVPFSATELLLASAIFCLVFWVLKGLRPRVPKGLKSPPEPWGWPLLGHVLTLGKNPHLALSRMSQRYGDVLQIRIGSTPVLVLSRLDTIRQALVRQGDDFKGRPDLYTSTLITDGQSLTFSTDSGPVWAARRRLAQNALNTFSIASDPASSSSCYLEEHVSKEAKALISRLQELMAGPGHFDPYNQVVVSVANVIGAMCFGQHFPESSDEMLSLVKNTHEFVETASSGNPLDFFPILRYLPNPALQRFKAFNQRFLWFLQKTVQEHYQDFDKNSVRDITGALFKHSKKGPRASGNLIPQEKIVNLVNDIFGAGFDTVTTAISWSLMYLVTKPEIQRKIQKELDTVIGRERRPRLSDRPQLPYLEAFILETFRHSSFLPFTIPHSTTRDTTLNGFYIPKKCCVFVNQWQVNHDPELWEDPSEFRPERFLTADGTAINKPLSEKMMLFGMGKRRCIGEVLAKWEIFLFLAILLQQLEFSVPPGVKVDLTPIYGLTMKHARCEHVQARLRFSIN
Kind of series: Inhibition of human recombinant CYP1A2 assessed as fluorescence of resorufin. The format is ADME.

Series [2] concerns the target T2, Aryl hydrocarbon receptor (Homo sapiens, UniProt P35869).
T2 sequence (P35869 whole entry): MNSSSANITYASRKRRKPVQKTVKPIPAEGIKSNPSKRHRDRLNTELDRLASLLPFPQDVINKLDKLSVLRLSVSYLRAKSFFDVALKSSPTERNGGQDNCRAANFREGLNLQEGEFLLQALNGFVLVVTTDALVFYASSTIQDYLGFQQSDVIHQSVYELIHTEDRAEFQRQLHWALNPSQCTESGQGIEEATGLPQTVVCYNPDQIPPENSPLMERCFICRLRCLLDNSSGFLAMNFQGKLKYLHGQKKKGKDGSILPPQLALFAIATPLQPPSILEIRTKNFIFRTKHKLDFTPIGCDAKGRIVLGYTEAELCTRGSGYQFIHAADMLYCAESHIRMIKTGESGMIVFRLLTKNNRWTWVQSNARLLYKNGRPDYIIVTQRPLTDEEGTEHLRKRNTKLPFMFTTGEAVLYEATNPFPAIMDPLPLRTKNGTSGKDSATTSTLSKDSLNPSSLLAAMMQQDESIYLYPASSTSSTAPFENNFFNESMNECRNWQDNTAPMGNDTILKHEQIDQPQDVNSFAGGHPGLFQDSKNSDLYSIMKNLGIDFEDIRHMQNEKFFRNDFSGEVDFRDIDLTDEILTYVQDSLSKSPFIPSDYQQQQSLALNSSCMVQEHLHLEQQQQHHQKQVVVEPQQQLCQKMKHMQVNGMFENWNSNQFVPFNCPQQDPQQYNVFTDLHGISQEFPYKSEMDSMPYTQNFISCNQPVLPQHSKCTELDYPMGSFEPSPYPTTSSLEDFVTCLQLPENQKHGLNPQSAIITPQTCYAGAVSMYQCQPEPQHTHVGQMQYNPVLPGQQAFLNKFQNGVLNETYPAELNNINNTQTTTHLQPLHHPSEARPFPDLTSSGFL
Kind of series: Antagonist activity at aryl hydrocarbon receptor (unknown origin) expressed in HEK293T cells assessed as luciferase activity at 10 uM measured after 24 hrs. It is filed as toxicity, cell-based.

The nature of series [3]: Metabolic stability in human liver microsomes assessed as relative remaining concentration measured after 60 mins by LC-UV analysis. The format is ADME, Microsome. The note with it: read-out: INH. (In general: Liver microsomes are vesicles of endoplasmic reticulum, rich in cytochrome P450 enzymes.)
Series [4] can be described thus: Metabolic stability in human liver microsomes assessed as half life measured after 60 mins by LC-UV analysis. The format is ADME, Microsome.
Series [5] deals with T1, Cytochrome P450 1A2. Kind of series: Inhibition of human CYP1A2 in human liver microsomes by LC-MS/MS analysis. It is filed as ADME, Microsome.
The target in another series is T3, Cytochrome P450 2A6 (Homo sapiens, UniProt P11509).
T3 sequence (P11509 whole entry): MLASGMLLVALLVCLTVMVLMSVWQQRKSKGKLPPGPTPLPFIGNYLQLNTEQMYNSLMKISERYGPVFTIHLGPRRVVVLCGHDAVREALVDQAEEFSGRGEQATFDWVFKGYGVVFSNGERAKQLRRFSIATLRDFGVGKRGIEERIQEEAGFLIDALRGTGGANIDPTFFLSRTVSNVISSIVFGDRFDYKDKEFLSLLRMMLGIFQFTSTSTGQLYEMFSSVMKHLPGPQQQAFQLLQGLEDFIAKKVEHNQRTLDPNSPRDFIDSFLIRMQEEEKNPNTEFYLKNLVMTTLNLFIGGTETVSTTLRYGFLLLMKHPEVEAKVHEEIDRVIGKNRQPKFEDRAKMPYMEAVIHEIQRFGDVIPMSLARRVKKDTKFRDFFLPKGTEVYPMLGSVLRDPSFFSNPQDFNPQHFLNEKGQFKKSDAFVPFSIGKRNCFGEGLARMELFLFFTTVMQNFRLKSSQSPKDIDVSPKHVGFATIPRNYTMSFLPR
Briefly: Inhibition of human CYP2A6 in human liver microsomes by LC-MS/MS analysis. It is filed as ADME, Microsome.

The next series concerns the target T4, Cytochrome P450 2C8 (Homo sapiens, UniProt P10632).
T4 sequence (P10632 whole entry): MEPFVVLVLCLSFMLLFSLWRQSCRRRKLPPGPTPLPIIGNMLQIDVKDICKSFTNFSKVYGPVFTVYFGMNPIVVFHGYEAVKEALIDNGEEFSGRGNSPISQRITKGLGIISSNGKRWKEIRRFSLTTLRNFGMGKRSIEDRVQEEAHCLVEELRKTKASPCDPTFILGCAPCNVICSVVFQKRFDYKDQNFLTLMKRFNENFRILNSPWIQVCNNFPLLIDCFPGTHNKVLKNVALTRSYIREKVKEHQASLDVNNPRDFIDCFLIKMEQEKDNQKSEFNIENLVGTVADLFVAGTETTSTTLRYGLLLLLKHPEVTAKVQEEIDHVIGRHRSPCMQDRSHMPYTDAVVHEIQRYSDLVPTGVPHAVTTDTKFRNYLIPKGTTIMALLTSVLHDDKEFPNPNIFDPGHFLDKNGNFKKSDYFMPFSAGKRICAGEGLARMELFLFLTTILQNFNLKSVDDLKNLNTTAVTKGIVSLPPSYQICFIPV
Kind of series: Inhibition of human CYP2C8 in human liver microsomes by LC-MS/MS analysis. It is filed as ADME, Microsome.

In another series the target is Cytochrome P450 2C9 (Homo sapiens, UniProt P11712). Kind of series: Inhibition of human CYP2C9 in human liver microsomes by LC-MS/MS analysis. It is filed as ADME, Microsome.
Sequence of Cytochrome P450 2C9 (P11712 whole entry): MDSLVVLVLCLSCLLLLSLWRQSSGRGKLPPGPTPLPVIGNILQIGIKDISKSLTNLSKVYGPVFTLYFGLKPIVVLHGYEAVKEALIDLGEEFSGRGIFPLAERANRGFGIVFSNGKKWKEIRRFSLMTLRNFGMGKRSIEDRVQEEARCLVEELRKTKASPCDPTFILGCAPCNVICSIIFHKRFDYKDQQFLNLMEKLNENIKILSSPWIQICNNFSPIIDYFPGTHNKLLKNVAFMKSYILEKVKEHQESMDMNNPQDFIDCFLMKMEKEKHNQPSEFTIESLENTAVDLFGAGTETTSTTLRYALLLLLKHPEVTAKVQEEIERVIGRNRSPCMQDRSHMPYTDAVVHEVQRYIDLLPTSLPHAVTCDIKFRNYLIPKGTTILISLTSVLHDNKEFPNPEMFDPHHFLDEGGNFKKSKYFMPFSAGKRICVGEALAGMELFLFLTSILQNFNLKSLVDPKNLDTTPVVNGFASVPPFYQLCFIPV
A further series has as its target Cytochrome P450 2C19 (Homo sapiens, UniProt P33261). Briefly: Inhibition of human CYP2C19 in human liver microsomes by LC-MS/MS analysis. The format is ADME, Microsome.
For a further series, the target named is Cytochrome P450 2D6 (Homo sapiens, UniProt P10635). Kind of series: Inhibition of human CYP2D6 in human liver microsomes by LC-MS/MS analysis. The format is ADME, Microsome.
Sequence of Cytochrome P450 2D6 (P10635 whole entry): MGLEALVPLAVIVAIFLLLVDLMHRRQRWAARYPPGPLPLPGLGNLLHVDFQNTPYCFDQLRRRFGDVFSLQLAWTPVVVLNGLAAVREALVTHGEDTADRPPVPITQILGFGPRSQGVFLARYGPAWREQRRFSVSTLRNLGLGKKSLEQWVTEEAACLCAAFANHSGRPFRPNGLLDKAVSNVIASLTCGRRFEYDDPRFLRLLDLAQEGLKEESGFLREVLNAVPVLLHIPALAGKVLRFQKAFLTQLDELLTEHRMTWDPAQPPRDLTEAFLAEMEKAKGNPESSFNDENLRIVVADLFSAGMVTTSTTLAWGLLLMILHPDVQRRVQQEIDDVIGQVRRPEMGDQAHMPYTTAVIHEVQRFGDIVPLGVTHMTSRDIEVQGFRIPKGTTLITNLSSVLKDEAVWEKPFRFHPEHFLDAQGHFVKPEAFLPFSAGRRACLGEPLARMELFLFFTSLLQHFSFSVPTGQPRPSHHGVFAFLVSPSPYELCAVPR
The next series concerns the target Cytochrome P450 2E1 (Homo sapiens, UniProt P05181). Briefly: Inhibition of human CYP2E1 in human liver microsomes by LC-MS/MS analysis. The format is ADME, Microsome.
The target of the next series is Cytochrome P450 3A4 (Homo sapiens, UniProt P08684). Kind of series: Inhibition of human CYP3A4 measured after 3 mins incubation by fluorescence assay. It is filed as ADME.
Sequence of Cytochrome P450 3A4 (P08684 whole entry): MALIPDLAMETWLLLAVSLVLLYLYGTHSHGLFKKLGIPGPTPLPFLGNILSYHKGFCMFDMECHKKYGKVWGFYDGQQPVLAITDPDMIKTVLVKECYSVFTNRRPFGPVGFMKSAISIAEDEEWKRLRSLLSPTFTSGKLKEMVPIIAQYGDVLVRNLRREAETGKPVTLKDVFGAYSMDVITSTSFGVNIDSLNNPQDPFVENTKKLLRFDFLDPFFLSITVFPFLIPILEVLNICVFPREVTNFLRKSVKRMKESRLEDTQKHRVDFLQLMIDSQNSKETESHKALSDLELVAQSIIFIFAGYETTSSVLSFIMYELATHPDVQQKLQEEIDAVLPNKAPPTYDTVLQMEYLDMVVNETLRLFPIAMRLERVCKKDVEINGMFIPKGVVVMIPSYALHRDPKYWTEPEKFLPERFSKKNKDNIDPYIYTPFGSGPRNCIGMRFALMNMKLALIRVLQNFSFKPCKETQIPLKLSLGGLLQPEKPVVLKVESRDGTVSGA

Sequence of Cytochrome P450 2C19 (P33261 whole entry): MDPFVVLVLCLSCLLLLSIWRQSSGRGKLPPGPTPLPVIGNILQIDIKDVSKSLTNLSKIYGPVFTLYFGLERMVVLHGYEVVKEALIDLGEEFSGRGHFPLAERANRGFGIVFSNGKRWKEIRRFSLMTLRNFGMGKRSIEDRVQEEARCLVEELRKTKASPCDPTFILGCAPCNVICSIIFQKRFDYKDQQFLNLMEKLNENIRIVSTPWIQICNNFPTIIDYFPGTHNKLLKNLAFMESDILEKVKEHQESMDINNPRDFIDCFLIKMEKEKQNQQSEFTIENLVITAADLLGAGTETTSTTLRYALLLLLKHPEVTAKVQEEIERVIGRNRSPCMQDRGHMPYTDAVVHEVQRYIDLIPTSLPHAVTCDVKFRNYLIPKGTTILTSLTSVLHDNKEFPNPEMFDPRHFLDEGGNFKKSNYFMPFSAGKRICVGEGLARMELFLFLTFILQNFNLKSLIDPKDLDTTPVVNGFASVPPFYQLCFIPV
Sequence of Cytochrome P450 2E1 (P05181 whole entry): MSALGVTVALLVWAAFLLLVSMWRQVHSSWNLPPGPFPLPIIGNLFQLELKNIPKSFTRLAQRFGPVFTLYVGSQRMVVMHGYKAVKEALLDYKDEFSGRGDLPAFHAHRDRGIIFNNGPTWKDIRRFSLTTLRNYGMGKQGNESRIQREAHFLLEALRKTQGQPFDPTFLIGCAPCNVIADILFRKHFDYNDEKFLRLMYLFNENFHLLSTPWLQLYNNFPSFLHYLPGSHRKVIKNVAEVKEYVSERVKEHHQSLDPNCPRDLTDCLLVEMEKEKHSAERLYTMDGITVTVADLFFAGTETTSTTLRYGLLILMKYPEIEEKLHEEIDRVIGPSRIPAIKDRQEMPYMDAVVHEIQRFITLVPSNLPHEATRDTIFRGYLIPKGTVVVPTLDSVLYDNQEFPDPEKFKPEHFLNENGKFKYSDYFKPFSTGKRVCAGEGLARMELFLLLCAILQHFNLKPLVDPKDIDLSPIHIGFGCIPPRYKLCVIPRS

Turning to `COc1cc(OC)c(/C=C/C(=O)c2ccc(C(F)(F)F)cc2)cc1Cl`, the IC50 on Cytochrome P450 1A2 [1], against Cytochrome P450 1A2 [5], against Cytochrome P450 2A6, against Cytochrome P450 2C8, against Cytochrome P450 2C9 and against Cytochrome P450 2C19 was over 100 µM throughout. Moreover, the IC50 against Cytochrome P450 2D6, on Cytochrome P450 2E1 and at Cytochrome P450 3A4 was over 100 µM throughout. The outcome in [2] was Active. In series [3], the remaining at 1 h is 54.5%. Further, the half-life (in general, how long it takes for the measured level to halve) in series [4] is 64.5 min.
